Patent US4104390A, “Thieno [2,3-c] and [3,2-c] pyridines” (Parcor, priority 1976, dated 1978)
Like-named read-outs stand apart in the source and are kept apart here.

Experiments:
[1] = LD50, intravenous route, mice; conditions: mouse, in vivo
[2] = test system: ovalbumen-induced systemic edema; experiment: Ovalbumen-induced systemic edema method; format: in vivo; conditions: Rattus norvegicus, po, rats, 100 mg/kg orally 1 hour before and with ovalbumen
Method: (b) Ovalbumen-induced systemic edema method
Simultaneous injection of 1 ml ovalbumen and 0.5 ml of a 1% aqueous Evans Blue solution is effected in rats. On the other hand, the animals of the treated group are administered orally 100 mg/kg of the test derivative one hour prior to ovalbumen administration and simultaneously with said administration. The intensity of the phenomenon thus induced is scored according to a scale from 1 to 5 depending on the progress of the inflammatory syndrome. The mean intensity of the edem and the percent decrease of the edema reaction with respect to the control group are thus determined as a function of time.

[3] = test system: collagen-induced blood-platelet aggregation; experiment: Collagen-induced blood-platelet aggregation; format: in vivo, Wistar rats; conditions: Rattus norvegicus, po; rats, 100 mg/kg orally, 3 hours after treatment, collagen (bovine tendon extract), with respect to control group; read-out: Percent inhibition of blood-platelet aggregation, Collagen
Method: (§1) Blood is taken from the jugular vein of Wistar rats. From this citrated blood, and after centrifugation, is reconstituted a plasma containing 600,000 ± 20,000 blood-platelets per ml which is used in all aggregation determinations.
(§2) 0.4 ml plasma is placed in a siliconized tube provided with a magnet bar, also siliconized. The tube is introduced into an aggregometer coupled with an apparatus for recording optical density variations. When light transmission has reached a stable value, 0.5 ml of a solution containing 10 μM A.D.P. (Adenosine-Di-Phosphate) is introduced into the tube.
(§3) Blood-platelet aggregation causes an increase of light transmission followed by a decrease subsequent to the deaggregation phase.
(§4) The maximal optical density variation thus determined characterizes the intensity of the aggregation.
The A.D.P. solution is substituted with a collagen solution (bovine tendon extract).
(§5) Different groups of 20 rats are used, each group being orally administered a test derivative at a dosage of 100 mg/kg.

[4] = test system: carrageenin-induced localized edema; experiment: Carrageenin-induced localized edema method; format: in vivo; conditions: Rattus norvegicus, po, rats, 100 mg/kg orally at -1, 0, 1 and 2.5 hours
Method: (a) Carrageenin-induced localized edema method
0.1 ml of a 1% carrageenin solution is injected in the metatarsal flexor muscles of the right hind limb of rats at time 0. The animals of the treated group are additionally orally administered 100 mg/kg of the test derivative, respectively one hour prior to injection of the phlogogenic agent, simultaneously with said injection, and then 1 hour and 2.5 hours thereafter. The determinations effected by means of a ROCH micrometer at times 0, 1 hour, 2 hours, 3 hours and 5 hours after carrageenin administration make it possible to determine, as a function of time, the percent anti-inflammatory activity with respect to the reference group.

[5] = test system: A.D.P.-induced blood-platelet aggregation; experiment: A.D.P.-induced blood-platelet aggregation; format: in vivo, Wistar rats; conditions: Rattus norvegicus, po; rats, 100 mg/kg orally, 3 hours after treatment, 10 μM A.D.P. solution, with respect to control group; read-out: Percent inhibition of blood-platelet aggregation, A.D.P.
Method: as §1, §2, §3, §4, §5

[6] = 2 hours after ovalbumen, read-out: Percent anti-inflammatory activity after 2 hours
[7] = 3 hours after ovalbumen, read-out: Percent anti-inflammatory activity after 3 hours
[8] = 1 hour after carrageenin, read-out: Percent anti-inflammatory activity after 1 hour
[9] = 2 hours after carrageenin, read-out: Percent anti-inflammatory activity after 2 hours
[10] = 3 hours after carrageenin, read-out: Percent anti-inflammatory activity after 3 hours
[11] = 5 hours after carrageenin, read-out: Percent anti-inflammatory activity after 5 hours

**Q.** For `CC1NCc2sccc2C1c1ccccc1` (stereo not drawn) [derivative n°1, 5-Methyl-4-phenyl-4,5,6,7-tetrahydro-thieno[2,3-c]pyridine], which LD50 at 24 h [1] is on record?
**A.** 63 mg/kg

**Q.** What about the inhibition in vivo at 100 mg/kg [2, 6] of the same compound?
**A.** 47%

**Q.** What about the inhibition in vivo at 100 mg/kg [2, 7] of the same compound?
**A.** 54%

**Q.** What about the inhibition at 100 mg/kg [3] of the same compound?
**A.** 96.2%

**Q.** And the inhibition in vivo at 100 mg/kg [4, 8]?
**A.** 37%

**Q.** And the inhibition in vivo at 100 mg/kg [4, 9]?
**A.** 43%

**Q.** And the inhibition in vivo at 100 mg/kg [4, 10]?
**A.** 45%

**Q.** What about the inhibition in vivo at 100 mg/kg [4, 11] of the same compound?
**A.** 47%

**Q.** And the inhibition at 100 mg/kg [5]?
**A.** 64.9%

**Q.** With `c1ccc(C2CNCc3sccc32)cc1` (stereo not drawn) [derivative n°3, 4-Phenyl-4,5,6,7-tetrahydro-thieno[2,3-c]pyridine] as the compound, how does the LD50 at 24 h [1] read?
**A.** 69 mg/kg

**Q.** And the inhibition in vivo at 100 mg/kg [2, 6]?
**A.** 52%

**Q.** What about the inhibition in vivo at 100 mg/kg [2, 7] of the same compound?
**A.** 59%

**Q.** And the inhibition at 100 mg/kg [3]?
**A.** 95.6%

**Q.** What about the inhibition in vivo at 100 mg/kg [4, 8] of the same compound?
**A.** 41%

**Q.** And the inhibition in vivo at 100 mg/kg [4, 9]?
**A.** 46%

**Q.** What about the inhibition in vivo at 100 mg/kg [4, 10] of the same compound?
**A.** 50%

**Q.** And the inhibition in vivo at 100 mg/kg [4, 11]?
**A.** 51%

**Q.** What about the inhibition at 100 mg/kg [5] of the same compound?
**A.** 64.1%

**Q.** For `CN1Cc2sccc2C(c2ccccc2)C1` (stereo not drawn) [derivative n°5, 6-Methyl-4-phenyl-4,5,6,7-tetrahydro-thieno[2,3-c]pyridine], which LD50 at 24 h [1] is on record?
**A.** 61 mg/kg

**Q.** And the inhibition in vivo at 100 mg/kg [2, 6]?
**A.** 44%

**Q.** And the inhibition in vivo at 100 mg/kg [2, 7]?
**A.** 51%

**Q.** And the inhibition at 100 mg/kg [3]?
**A.** 93.8%

**Q.** What about the inhibition in vivo at 100 mg/kg [4, 8] of the same compound?
**A.** 37%

**Q.** And the inhibition in vivo at 100 mg/kg [4, 9]?
**A.** 45%

**Q.** And the inhibition in vivo at 100 mg/kg [4, 10]?
**A.** 50%

**Q.** And the inhibition in vivo at 100 mg/kg [4, 11]?
**A.** 51%

**Q.** What about the inhibition at 100 mg/kg [5] of the same compound?
**A.** 63.6%

**Q.** With `Clc1ccccc1CN1Cc2ccsc2C(c2ccccc2)C1` (stereo not drawn) [derivative n°19, 5-o.Chlorobenzyl-7-phenyl-4,5,6,7-tetrahydro-thieno[3,2-c]pyridine] as the compound, how does the inhibition in vivo at 100 mg/kg [2, 6] read?
**A.** 49%

**Q.** What about the inhibition in vivo at 100 mg/kg [2, 7] of the same compound?
**A.** 57%

**Q.** What about the inhibition at 100 mg/kg [3] of the same compound?
**A.** 93.7%

**Q.** And the inhibition in vivo at 100 mg/kg [4, 8]?
**A.** 47%

**Q.** And the inhibition in vivo at 100 mg/kg [4, 9]?
**A.** 53%

**Q.** And the inhibition in vivo at 100 mg/kg [4, 10]?
**A.** 54%

**Q.** And the inhibition in vivo at 100 mg/kg [4, 11]?
**A.** 56%

**Q.** What about the inhibition at 100 mg/kg [5] of the same compound?
**A.** 62.3%

**Q.** What does the source list for `c1ccc(CCN2Cc3ccsc3C(c3ccccc3)C2)cc1` (stereo not drawn) [derivative n°20, 5-Phenethyl-7-phenyl-4,5,6,7-tetrahydro-thieno[3,2-c]pyridine]?
**A.** inhibition in vivo at 100 mg/kg [2, 6]: 53%; inhibition in vivo at 100 mg/kg [2, 7]: 61%; inhibition at 100 mg/kg [3]: 94.2%; inhibition in vivo at 100 mg/kg [4, 8]: 43%; inhibition in vivo at 100 mg/kg [4, 9]: 48%; inhibition in vivo at 100 mg/kg [4, 10]: 52%; inhibition in vivo at 100 mg/kg [4, 11]: 55%; inhibition at 100 mg/kg [5]: 63.6%

**Q.** With `CCCCN1Cc2ccsc2C(c2ccccc2)C1` (stereo not drawn) [derivative n°21, 5-Butyl-7-phenyl-4,5,6,7-tetrahydro-thieno[3,2-c]pyridine] as the compound, how does the inhibition in vivo at 100 mg/kg [2, 6] read?
**A.** 51%

**Q.** And the inhibition in vivo at 100 mg/kg [2, 7]?
**A.** 57%

**Q.** What about the inhibition at 100 mg/kg [3] of the same compound?
**A.** 94%

**Q.** What about the inhibition in vivo at 100 mg/kg [4, 8] of the same compound?
**A.** 38%

**Q.** And the inhibition in vivo at 100 mg/kg [4, 9]?
**A.** 44%

**Q.** And the inhibition in vivo at 100 mg/kg [4, 10]?
**A.** 46%

**Q.** And the inhibition in vivo at 100 mg/kg [4, 11]?
**A.** 49%

**Q.** What about the inhibition at 100 mg/kg [5] of the same compound?
**A.** 62.2%
